Test results as given in patent publication US20250145633A1, “SUBSTITUTED FURANOPYRIMIDINE COMPOUNDS AS PDE1 INHIBITORS” (Dart NeuroScience, LLC, priority 2017, published 2025).

target: human PDE1B enzyme (Homo sapiens (Human), UniProt Q01064); assay: IMAP TR-FRET PDE1B enzymatic assay; assay type: biochemical; conditions: negative log of half-maximal molar inhibitory concentration; 200 nM FAM-cAMP; values given as bins
Method in brief: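 Full-length GST-tagged human PDE1B (250 pg/well) in IMAP BSA buffer with 10 U/ml calmodulin and 2.5 mM CaCl2; compound pre-incubated 5 min at room temperature, then 200 nM (final) FAM-cAMP for 30 min. IMAP binding reagent/Tb added, 1 h; TR-FRET 520/490 ratio read. IC50 from sigmoidal dose-response fit.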

SMILES	PDE1b (pIC50)
Cc1oc2ncnc(NC3(C)CC3)c2c1C(=O)N1CCC(c2ncccn2)CC1 [Example 309, 6-Methyl-N-(1-methylcyclopropyl)-5-[4-(pyrimidin-2-yl)piperidine-1-carbonyl]furo[2,3-d]pyrimidin-4-amine]	>8
COc1ccc(C(C)NC(=O)c2c(C)oc3ncnc(NC4(C)CC4)c23)cc1OC (stereo in doubt) [Example 556, N-[(1R)-1-(3,4-Dimethoxyphenyl)ethyl]-6-methyl-4-[(1-methylcyclopropyl)amino]furo[2,3-d]pyrimidine-5-carboxamide]	>8
Cc1oc2ncnc(NC3(C)CC3)c2c1C(=O)N1CCc2c(ncnc2NCC2CC2)C1 [Example 343, 5-{4-[(Cyclopropylmethyl)amino]-5H,6H,7H,8H-pyrido[3,4-d]pyrimidine-7-carbonyl}-6-methyl-N-(1-methylcyclopropyl)furo[2,3-d]pyrimidin-4-amine]	>8
Cc1oc2ncnc(NC3(C)CC3)c2c1C(=O)N1CCc2ccc(OCF)cc2C1C (stereo not shown) [Example 772, 5-[7-(Fluoromethoxy)-1-methyl-1,2,3,4-tetrahydroisoquinoline-2-carbonyl]-6-methyl-N-(1-methylcyclopropyl)furo[2,3-d]pyrimidin-4-amine]	>8
Cc1cnc(C2CCN(C(=O)c3c(C)oc4ncnc(NC5(C)CC5)c34)CC2)nc1 [Example 360, 6-Methyl-N-(1-methylcyclopropyl)-5-[4-(5-methylpyrimidin-2-yl)piperidine-1-carbonyl]furo[2,3-d]pyrimidin-4-amine]	>8
Cc1ccc(CNC(=O)c2c(C)oc3ncnc(NC4(C)CC4)c23)cc1 [Example 196, 6-Methyl-4-[(1-methylcyclopropyl)amino]-N-[(4-methylphenyl)methyl]furo[2,3-d]pyrimidine-5-carboxamide]	>8
CCCc1ccnc(C2CCN(C(=O)c3c(C)oc4ncnc(NC5(C)CC5)c34)CC2)n1 [Example 369, 6-Methyl-N-(1-methylcyclopropyl)-5-[4-(4-propylpyrimidin-2-yl)piperidine-1-carbonyl]furo[2,3-d]pyrimidin-4-amine]	>8
Cc1oc2ncnc(NC3(C)CC3)c2c1C(=O)NCc1nc2cc(F)ccc2o1 [Example 751, N-[(5-Fluoro-1,3-benzoxazol-2-yl)methyl]-6-methyl-4-[(1-methylcyclopropyl)amino]furo[2,3-d]pyrimidine-5-carboxamide]	>8

same assay, conditions: negative log of half-maximal molar inhibitory concentration; 200 nM FAM-cAMP; values given as bins; read-out: PDE1b (pIC50) (converted)

SMILES	IC50 [nM]
Cc1nc(NC(=O)c2c(C)oc3ncnc(NC4(C)CC4)c23)ccc1F [Example 436, N-(5-Fluoro-6-methylpyridin-2-yl)-6-methyl-4-[(1-methylcyclopropyl)amino]furo[2,3-d]pyrimidine-5-carboxamide]	10 to 100
Cc1cccc(CNC(=O)c2c(C)oc3ncnc(NC4(C)CC4)c23)n1 [Example 697, 6-Methyl-4-[(1-methylcyclopropyl)amino]-N-[(6-methylpyridin-2-yl)methyl]furo[2,3-d]pyrimidine-5-carboxamide]	10 to 100
Cc1oc2ncnc(NC3(C)CC3)c2c1C(N)=O [Example 761, 6-Methyl-4-[(1-methylcyclopropyl)amino]furo[2,3-d]pyrimidin-5-carboxamide]	100 to 1000
Cc1nn(C(=O)c2c(C)oc3ncnc(NC4(C)CC4)c23)c(C)c1CN1CCOCC1 [Example 415, 5-[3,5-Dimethyl-4-(morpholin-4-ylmethyl)-1H-pyrazole-1-carbonyl]-6-methyl-N-(1-methylcyclopropyl)furo[2,3-d]pyrimidin-4-amine]	10 to 100
Cc1oc2ncnc(NC3(C)CC3)c2c1C(=O)N1CCC(c2cnn(C)c2)C1 (stereo not shown) [Example 321, 6-Methyl-5-[3-(1-methyl-1H-pyrazol-4-yl)pyrrolidine-1-carbonyl]-N-(1-methylcyclopropyl)furo[2,3-d]pyrimidin-4-amine]	10 to 100
Cc1oc2ncnc(NC3(C)CC3)c2c1C(=O)N1CCN(c2ccc(S(C)(=O)=O)cc2F)CC1 [Example 359, 5-[4-(2-Fluoro-4-methanesulfonylphenyl)piperazine-1-carbonyl]-6-methyl-N-(1-methylcyclopropyl)furo[2,3-d]pyrimidin-4-amine]	10 to 100
Cc1oc2ncnc(NC3(C)CC3)c2c1C(=O)N(C)Cc1nccs1 [Example 701, N,6-Dimethyl-4-[(1-methylcyclopropyl)amino]-N-(1,3-thiazol-2-ylmethyl)furo[2,3-d]pyrimidine-5-carboxamide]	100 to 1000
Cc1oc2ncnc(NC3(C)CC3)c2c1C(=O)NCc1ccsc1 [Example 191, 6-Methyl-4-[(1-methylcyclopropyl)amino]-N-(thiophen-3-ylmethyl)furo[2,3-d]pyrimidine-5-carboxamide]	10 to 100
Cc1cnn(C(=O)c2c(C)oc3ncnc(NC4(C)CC4)c23)c1 [Example 408, 6-Methyl-5-(4-methyl-1H-pyrazole-1-carbonyl)-N-(1-methylcyclopropyl)furo[2,3-d]pyrimidin-4-amine]	100 to 1000
Cc1oc2ncnc(NC3(C)CC3)c2c1C(=O)NC1CC(c2ccc(F)cc2)C1 (stereo not shown) [Example 151, N-[3-(4-Fluorophenyl)cyclobutyl]-6-methyl-4-[(1-methylcyclopropyl)amino]furo[2,3-d]pyrimidine-5-carboxamide]	10 to 100
CCCCNC(=O)c1c(C)oc2ncnc(NC3(C)CC3)c12 [Example 213, N-Butyl-6-methyl-4-[(1-methylcyclopropyl)amino]furo[2,3-d]pyrimidine-5-carboxamide]	10 to 100
Cc1oc2ncnc(NC3(C)CC3)c2c1C(=O)N1CCN(c2nccs2)CC1 [Example 35, 6-Methyl-N-(1-methylcyclopropyl)-5-[4-(1,3-thiazol-2-yl)piperazine-1-carbonyl]furo[2,3-d]pyrimidin-4-amine]	10 to 100
Cc1oc2ncnc(NC3(C)CC3)c2c1C(=O)N(C)Cc1ccccc1F [Example 249, N-[(2-Fluorophenyl)methyl]-N,6-dimethyl-4-[(1-methylcyclopropyl)amino]furo[2,3-d]pyrimidine-5-carboxamide]	10 to 100
COc1cccc(CN(C)C(=O)c2c(C)oc3ncnc(NC4(C)CC4)c23)c1 [Example 203, N-[(3-Methoxyphenyl)methyl]-N,6-dimethyl-4-[(1-methylcyclopropyl)amino]furo[2,3-d]pyrimidine-5-carboxamide]	10 to 100
Cc1oc2ncnc(NC3(C)CC3)c2c1C(=O)NCCc1cccc(Cl)c1 [Example 204, N-[2-(3-Chlorophenyl)ethyl]-6-methyl-4-[(1-methylcyclopropyl)amino]furo[2,3-d]pyrimidine-5-carboxamide]	10 to 100
COc1ccc(C2CCN(C(=O)c3c(C)oc4ncnc(NC5(C)CC5)c34)CC2)nn1 [Example 364, 5-[4-(6-Methoxypyridazin-3-yl)piperidine-1-carbonyl]-6-methyl-N-(1-methylcyclopropyl)furo[2,3-d]pyrimidin-4-amine]	10 to 100
Cc1oc2ncnc(NC3(C)CC3)c2c1C(=O)NCC1CC1(F)F (stereo not shown) [Example 755, N-[(2,2-Difluorocyclopropyl)methyl]-6-methyl-4-[(1-methylcyclopropyl)amino]furo[2,3-d]pyrimidine-5-carboxamide]	10 to 100
Cc1nnc(CNC(=O)c2c(C)oc3ncnc(NC4(C)CC4)c23)s1 [Example 468, 6-Methyl-N-[(5-methyl-1,3,4-thiadiazol-2-yl)methyl]-4-[(1-methylcyclopropyl)amino]furo[2,3-d]pyrimidine-5-carboxamide]	10 to 100
COc1ccc(N2CCN(C(=O)c3c(C)oc4ncnc(NC5(C)CC5)c34)CC2)cc1 [Example 186, 5-[4-(4-Methoxyphenyl)piperazine-1-carbonyl]-6-methyl-N-(1-methylcyclopropyl)furo[2,3-d]pyrimidin-4-amine]	10 to 100
Cc1oc2ncnc(NC3(C)CC3)c2c1C(=O)N1CCC(c2ncc(C(F)(F)F)cn2)CC1 [Example 431, 6-Methyl-N-(1-methylcyclopropyl)-5-{4-[5-(trifluoromethyl)pyrimidin-2-yl]piperidine-1-carbonyl}furo[2,3-d]pyrimidin-4-amine]	10 to 100
Cc1oc2ncnc(NC3(C)CC3)c2c1C(=O)NC(C)c1ncc(F)cn1 (stereo in doubt) [Example 615, N-[(1R)-1-(5-Fluoropyrimidin-2-yl)ethyl]-6-methyl-4-[(1-methylcyclopropyl)amino]furo[2,3-d]pyrimidine-5-carboxamide]	10 to 100
CNC(=O)c1c(C)oc2ncnc(NC3(C)CC3)c12 [Example 80, N,6-Dimethyl-4-[(1-methylcyclopropyl)amino]furo[2,3-d]pyrimidine-5-carboxamide]	100 to 1000
Cc1oc2ncnc(NC3(C)CC3)c2c1C(=O)N1CCc2c(ncnc2N2CC[C@@H](F)C2)C1 [Example 18, 5-{4-[(3R)-3-Fluoropyrrolidin-1-yl]-5H,6H,7H,8H-pyrido[3,4-d]pyrimidine-7-carbonyl}-6-methyl-N-(1-methylcyclopropyl)furo[2,3-d]pyrimidin-4-amine]	10 to 100
Cc1oc2ncnc(NC3(C)CC3)c2c1C(=O)NC1(CF)CC1 [Example 3, N-(1-(fluoromethyl)cyclopropyl)-6-methyl-4-((1-methylcyclopropyl)amino)furo[2,3-d]pyrimidine-5-carboxamide]	10 to 100
Cc1nccc(CNC(=O)c2c(C)oc3ncnc(NC4(C)CC4)c23)n1 [Example 625, 6-Methyl-4-[(1-methylcyclopropyl)amino]-N-[(2-methylpyrimidin-4-yl)methyl]furo[2,3-d]pyrimidine-5-carboxamide]	10 to 100
Cc1oc2ncnc(NC3(C)CC3)c2c1C(=O)NCc1ccon1 [Example 92, 6-Methyl-4-[(1-methylcyclopropyl)amino]-N-(1,2-oxazol-3-ylmethyl)furo[2,3-d]pyrimidine-5-carboxamide]	10 to 100
